In PubChem BioAssay (NCI) one finds GI50 and TGI data, which are given here for ten compounds.

What all share (test): inhibition of tumour cell growth, NCI panel, 48 h
Assay [1] deals with SF-295 CNS.
Assay [2] has as its system SK-OV-3 ovarian.
The subject of assay [3] is CAKI-1 renal.
The test system of assay [4] is OVCAR-5 ovarian.
The subject of assay [5] is IGROV1 ovarian.
The subject of assay [6] is PC-3 prostate.
The subject of assay [7] is 786-0 renal.
In assay [8] the test system is HL-60(TB) leukemia.
Assay [9] has as its system SR leukemia.
The test system of assay [10] is A549 NSCLC.

Several values for one entry are separate records, joined by “and”; a condition that tells them apart may be missing. Equal values may be shown once.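 All cell lines were grown in 96-well plates and treated with compound for 48 hours. GI50 marks 50% less growth. TGI is the concentration that stops growth completely.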 Where only a bound is given, the exact number is not on record here.

`O=C(NCCc1ccccc1)C(c1csc2ccccc12)N(C(=O)CCl)c1ccc(-c2cnco2)cc1` (configuration not stated): the GI50 is 0.156 µM in [1]; 1.25 µM in assay [2]; 0.096 µM in assay [3]; 0.682 µM in assay [4]; 0.161 µM in assay [5]; 0.511 µM in assay [6]. In addition, the GI50 is 0.0197 µM in assay [7], 0.762 µM in assay [8], 0.0268 µM in assay [9] and 0.393 µM in [10]. Moreover, the TGI in assay [1] came out at 0.302 µM; in assay [2], 2.69 µM; in assay [3], 0.487 µM; in assay [4], 2.07 µM; in [5], 0.331 µM; in [6] it was 1.9 µM. Moreover, the TGI is 0.038 µM in assay [7], 2.8 µM in assay [8], 0.107 µM in assay [9] and 1.64 µM in assay [10].

Take `CN1CCN(c2nc(C3=C(c4c[nH]c5ccccc45)C(=O)NC3=O)c3ccccc3n2)CC1`: the GI50 in [1] was 12.2 µM and 19.6 µM; in [2] it was 19.5 µM and 16.2 µM; in assay [3], 9.47 µM and 16.9 µM; in [4], 28.7 µM and 34.5 µM; in assay [5], 21.4 µM and 21 µM; in assay [6] it was 27.2 µM and 18.3 µM. Also, the GI50 in assay [7] is 15.7 µM and 18.3 µM; in [8], 12.3 µM and 15.1 µM; in [9], 11.6 µM; in assay [10], 21.2 µM and 18.4 µM. Besides, the TGI in assay [1] was 25.9 µM and 37.8 µM; in assay [2], 65 µM and 45.9 µM; in assay [3] it was 54.5 µM and 46.1 µM; in assay [4] it was 65 µM and > 100 µM; in assay [5], 65 µM and 41.3 µM; in assay [6] it was 65 µM and 43.6 µM. For the same compound, the TGI in assay [7] was 39.6 µM and 36.9 µM; in assay [8], 36.6 µM and 35.6 µM; in [9], 36.2 µM; in assay [10] it was 65 µM and 48.9 µM.

For `N#CC1=C(N)NC(=S)NC1c1ccc(-c2ccc(-c3nc4ccccc4s3)cc2)o1` (configuration not stated), the GI50 was 26.9 µM in assay [1]; greater than 50 µM in assay [2]; 35.3 µM in assay [3]; greater than 50 µM in [4]; 32.1 µM in assay [5]; 31.2 µM in [6]. Moreover, the GI50 was greater than 50 µM in [7], 30.7 µM in assay [8], 11.3 µM in [9] and 31.6 µM in [10]. For the same compound, the TGI in assay [1], in assay [2], in [3], in [4], in assay [5] and in assay [6] was greater than 50 µM each time. Further, the TGI in assay [7] was greater than 50 µM; in [8] it was greater than 50 µM; in assay [9], 25.7 µM; in assay [10], greater than 50 µM.

Consider `NS(=O)(=O)OC[C@H]1O[C@@H](n2cnc3c(N[C@H]4CCc5ccccc54)ncnc32)[C@H](O)[C@@H]1O`, for which the GI50 is 0.387 µM in [1]; 0.234 µM in assay [2]; 0.054 µM in assay [3]; 0.305 µM in assay [4]; 0.174 µM in [5]; 0.337 µM in assay [6]. Moreover, the GI50 was 0.0799 µM in [7], 0.0482 µM in assay [8], 0.0368 µM in [9] and 0.871 µM in [10]. Further, the TGI in assay [1] is 1.94 µM; in [2], 0.644 µM; in assay [3], 0.181 µM; in assay [4], 2.24 µM; in assay [5] it was 1 µM; in assay [6], 2.14 µM. The TGI in assay [7] is 0.373 µM; in [8], 1.44 µM; in [9], greater than 52.6 µM; in [10] it was 3 µM.

As to `CCCCCc1c(C)[nH]c(/C=C2\N=C(c3ccc[nH]3)C=C2Oc2ccc(OC)cc2)c1C`, the GI50 was 0.18 µM and 0.0775 µM in [1]; 0.392 µM and 0.141 µM in assay [2]; 0.136 µM and 0.0363 µM in assay [3]; 0.128 µM and 0.0591 µM in [4]; 0.244 µM and 0.0925 µM in assay [5]; 0.106 µM and 0.0275 µM in assay [6]. Moreover, the GI50 in assay [7] was 0.141 µM and 0.0404 µM; in assay [8], 0.209 µM; in assay [9], 0.0321 µM and 0.0291 µM; in [10], 0.0339 µM. Moreover, the TGI is 0.735 µM and 0.437 µM in assay [1]; 2.25 µM and 1.39 µM in assay [2]; 0.449 µM and 0.333 µM in assay [3]; 4.56 µM and 2.02 µM in assay [4]; 1.49 µM and 3.07 µM in assay [5]; 1.03 µM in assay [6]. The TGI in assay [7] is 0.328 µM and 0.315 µM; in assay [8], 0.924 µM; in [10], 0.165 µM.

Take `COc1ccc2c(c1)Cc1cc(N=[N+]([O-])c3ccc4c(c3)Cc3cc(OC)ccc3-4)ccc1-2`: the TGI in assay [1] was greater than 100 µM; in assay [2], greater than 100 µM; in [3] it was greater than 100 µM; in assay [4] it was greater than 100 µM; in [5] it was 55.2 µM; in assay [6], greater than 100 µM. The TGI in assay [7] is greater than 100 µM; in [8], greater than 100 µM; in [9], 41.5 µM; in [10], greater than 100 µM.

For `O=c1cc(N2CCOCC2)oc2c(-c3ccccc3)cccc12`, the GI50 in [1] is 2.61 µM; in [2], 6.92 µM; in assay [4] it was 5.17 µM; in [5] it was 3.65 µM; in assay [6] it was 2.96 µM; in assay [7] it was 3.13 µM. Also, the GI50 in [8] is 3.38 µM; in [10], 6 µM. In addition, the TGI in assay [1] was 27.8 µM and 44.7 µM; in [2], 62.4 µM and 60.9 µM; in [3] it was 28.9 µM and 9.16 µM; in assay [4], > 100 µM and 63.8 µM; in [5], > 34.4 µM and 12.3 µM; in [6], greater than 100 µM. Moreover, the TGI was > 37.9 µM and 46.7 µM in assay [7]; 38.2 µM and > 100 µM in assay [8]; > 60 µM and 46.6 µM in assay [9]; > 72.8 µM and 36.7 µM in [10].

Take `Oc1ccc(Br)cc1CN1CCN(Cc2ccc(Cl)cc2)CC1`: the GI50 in assay [1] was 18.6 µM; in assay [2], 31 µM; in assay [3] it was 22.7 µM; in assay [4], 21.2 µM; in [5] it was 44.3 µM; in assay [6], 23.9 µM. Also, the GI50 in assay [7] was 21.2 µM; in assay [8] it was 22.8 µM; in assay [9], 19.1 µM; in [10] it was 25.1 µM. In addition, the TGI in assay [1] was greater than 100 µM; in assay [2], greater than 100 µM; in assay [3], greater than 100 µM; in [4], 75.2 µM; in [5] it was greater than 100 µM; in assay [6] it was greater than 100 µM. Besides, the TGI in [7] is 80.9 µM; in assay [8], 66.5 µM; in [9] it was 80.9 µM; in assay [10], greater than 100 µM.

Take `COc1cc(Oc2cnc3cc(N)cc(N)c3n2)cc(OC)c1OC`: the GI50 in [1] was 74.4 µM; in assay [2], 91.2 µM; in assay [3] it was 38.2 µM; in [4], 23 µM; in assay [5] it was 32.8 µM; in assay [6] it was 32.4 µM. Moreover, the GI50 in assay [7] was 33 µM; in assay [8], 21.9 µM; in [9] it was 14 µM; in assay [10] it was greater than 100 µM. Besides, the TGI was greater than 100 µM in [1]; greater than 100 µM in assay [2]; greater than 100 µM in [3]; 62.6 µM in [4]; greater than 100 µM in assay [5]; greater than 100 µM in assay [6]. The TGI was greater than 100 µM in assay [7], 45 µM in assay [8], 37.2 µM in [9] and greater than 100 µM in assay [10].

Regarding `CC(=N\O)/C(C)=N/O.CC(=N\O)/C(C)=N/O.[Pd]`, the GI50 in [1] is greater than 10 µM; in assay [2], 7.62 µM; in assay [3], greater than 10 µM; in assay [4], 6.47 µM; in assay [5], 3.09 µM; in assay [6], 4.73 µM. The GI50 was 3.31 µM in assay [7], 4 µM in [8], greater than 10 µM in assay [9] and 7.03 µM in [10]. In addition, the TGI in [1] is greater than 10 µM; in assay [2] it was greater than 10 µM; in [3], greater than 10 µM; in [4], greater than 10 µM; in assay [5], 9.16 µM; in assay [6], greater than 10 µM. Also, the TGI in assay [7] was 8.86 µM; in [8], greater than 10 µM; in assay [9] it was greater than 10 µM; in [10], greater than 10 µM.
